{
  "source": "patent US8999957B2",
  "about": "“Heterocyclic compounds as ERK inhibitors” (Merck Sharp & Dohme Corp., priority 2010, dated 2015)",
  "note": "pIC50: −log10 of the molar value. Values joined by “and” are separate entries in the source; they are usually repeats but may differ in a detail not shown here. Equal entries are not always repeated.",
  "data": [
    {"molecular_target": "fully phosphorylated, mouse aERK2 enzyme (Mus musculus (Mouse), UniProt P63085)", "sequence (P63085 whole entry)": "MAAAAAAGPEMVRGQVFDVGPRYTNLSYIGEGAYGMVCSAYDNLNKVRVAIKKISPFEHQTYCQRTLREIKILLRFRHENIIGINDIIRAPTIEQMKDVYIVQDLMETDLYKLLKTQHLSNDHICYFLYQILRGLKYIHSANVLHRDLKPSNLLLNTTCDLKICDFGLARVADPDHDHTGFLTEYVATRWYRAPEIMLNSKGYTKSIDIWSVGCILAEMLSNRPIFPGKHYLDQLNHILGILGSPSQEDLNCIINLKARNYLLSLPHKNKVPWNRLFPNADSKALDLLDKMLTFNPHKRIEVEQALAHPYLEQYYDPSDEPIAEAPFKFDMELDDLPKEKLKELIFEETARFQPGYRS", "assay": "Active ERK2 (aERK) IMAP-FP assay, condition 2", "format": "biochemical", "details": "aERK assay condition 2, 30 uM ATP; read-out: aERK IC50", "procedure": "(§1) Active ERK2 (aERK) Assay: (Unless Indicated Otherwise, the Data Provided for aERK was obtained using Condition 1)\n(§2) Activated ERK2 activity was determined in an IMAP-FP assay (Molecular Devices). […] Phosphorylation reactions were allowed to proceed for 40-45 minutes and were immediately quenched by the addition of 60 μL IMAP detection beads (1:1000 dilutions) in IMAP binding buffer. Plates were read on EnVision reader after 30 minutes binding equilibration.", "values": [
      {"smiles": "NC(=O)C(c1c(F)cccc1F)N1CCC[C@@H](NC(=O)c2ccc3[nH]nc(-c4ccncc4)c3c2)C1", "note": "(single isomer, unassigned) [drawing 504, N-((R)-1-((S or R)-2-amino-1-(2,6-difluorophenyl)-2-oxoethyl)piperidin-3-yl)-3-(pyridin-4-yl)-1H-indazole-5-carboxamide]", "pIC50": 7.45},
      {"smiles": "CNC(=O)C(c1c(F)cccc1F)N1CCC[C@@H](NC(=O)c2ccc3[nH]nc(-c4ccncc4)c3c2)C1", "note": "(single isomer, unassigned) [drawing 505, N-((R)-1-((R or S)-1-(2,6-difluorophenyl)-2-(methylamino)-2-oxoethyl)-piperidin-3-yl)-3-(pyridin-4-yl)-1H-indazole-5-carboxamide]", "pIC50": 6.35},
      {"smiles": "CNC(=O)C(c1c(F)cccc1F)N1CCC[C@@H](NC(=O)c2ccc3[nH]nc(-c4ccncc4)c3c2)C1", "note": "(single isomer, unassigned) [drawing 506, N-((R)-1-((S or R)-1-(2,6-difluorophenyl)-2-(methylamino)-2-oxoethyl)piperidin-3-yl)-3-(pyridin-4-yl)-1H-indazole-5-carboxamide]", "pIC50": 7.68},
      {"smiles": "CN(C)C(=O)C(c1c(F)cccc1F)N1CCC[C@@H](NC(=O)c2ccc3[nH]nc(-c4ccncc4)c3c2)C1", "note": "(single isomer, unassigned) [drawing 507, N-((R)-1-((R or S)-1-(2,6-difluorophenyl)-2-(dimethyl-amino)-2-oxoethyl)piperidin-3-yl)-3-(pyridin-4-yl)-1H-indazole-5-carboxamide]", "pIC50": 6.38},
      {"smiles": "CN(C)C(=O)C(c1c(F)cccc1F)N1CCC[C@@H](NC(=O)c2ccc3[nH]nc(-c4ccncc4)c3c2)C1", "note": "(single isomer, unassigned) [drawing 508, N-((R)-1-((S or R)-1-(2,6-difluorophenyl)-2-(dimethyl-amino)-2-oxoethyl)piperidin-3-yl)-3-(pyridin-4-yl)-1H-indazole-5-carboxamide]", "pIC50": 6.94},
      {"smiles": "COc1cccc(F)c1CN1CCC[C@@H](NC(=O)c2ccc3[nH]nc(C4=CCS(=O)(=O)CC4)c3c2)C1", "note": "[3-(1,1-dioxido-3,6-dihydro-2H-thiopyran-4-yl)-N-[(3R)-1-(2-fluoro-6-methoxy-benzyl)piperidin-3-yl]-1H-indazole-5-carboxamide]", "pIC50": 8.08},
      {"smiles": "COc1cccc(F)c1CN1CCC[C@@H](NC(=O)c2ccc3[nH]nc(C4=CCOCC4)c3c2)C1", "note": "[3-(3,6-dihydro-2H-pyran-4-yl)-N-[(3R)-1-(2-fluoro-6-methoxy-benzyl)piperidin-3-yl]-1H-indazole-5-carboxamide]", "pIC50": 8.89},
      {"smiles": "COC(=O)[C@@H](c1c(F)cccc1F)N1CCC[C@@H](NC(=O)c2ccc3[nH]nc(-c4ccncc4)c3c2)C1", "note": "[(R)-methyl 2-(2,6-difluorophenyl)-2-((R)-3-(3-(pyridin-4-yl)-1H-indazole-5-carboxamido)piperidin-1-yl)acetate]", "pIC50": 5.66},
      {"smiles": "COc1cccc(F)c1CN1CCC[C@@H](NC(=O)c2ccc3[nH]nc(C4CCOCC4)c3c2)C1", "note": "[N-[(3R)-1-(2-fluoro-6-methoxybenzyl)piperidin-3-yl]-3-(tetrahydro-2H-pyran-4-yl)-1H-indazole-5-carboxamide]", "pIC50": 6.71},
      {"smiles": "COc1cccc(F)c1CN1C[C@H](NC(=O)c2ccc3[nH]nc(-c4ccnc(C)c4)c3c2)CC[C@H]1C(=O)Nc1nccs1", "note": "[N-[(3R,6S)-1-(2-fluoro-6-methoxybenzyl)-6-(1,3-thiazol-2-ylcarbamoyl)piperidin-3-yl]-3-(2-methylpyridin-4-yl)-1H-indazole-5-carboxamide]", "pIC50": 7.85},
      {"smiles": "COc1cccc(F)c1CN1C[C@H](NC(=O)c2ccc3[nH]nc(-c4ccnc(C)c4)c3c2)CC[C@H]1C(=O)Nc1cccnc1", "note": "[N-[(3R,6S)-1-(2-fluoro-6-methoxybenzyl)-6-(pyridin-3-ylcarbamoyl)piperidin-3-yl]-3-(2-methylpyridin-4-yl)-1H-indazole-5-carboxamide]", "pIC50": 8.39},
      {"smiles": "COc1cccc(F)c1CN1C[C@H](NC(=O)c2ccc3[nH]nc(-c4ccnc(C)c4)c3c2)CC[C@H]1C(=O)Nc1ccncc1", "note": "[N-[(3R,6S)-1-(2-fluoro-6-methoxybenzyl)-6-(pyridin-4-ylcarbamoyl)piperidin-3-yl]-3-(2-methylpyridin-4-yl)-1H-indazole-5-carboxamide]", "pIC50": 8.52},
      {"smiles": "COc1cccc(F)c1CN1C[C@H](NC(=O)c2ccc3[nH]nc(-c4ccnc(C)c4)c3c2)CC[C@H]1C(=O)NCC1(CO)CCCC1", "note": "[N-[(3R,6S)-1-(2-fluoro-6-methoxybenzyl)-6-({[1-(hydroxymethyl)cyclopentyl]methyl}carbamoyl)piperidin-3-yl]-3-(2-methylpyridin-4-yl)-1H-indazole-5-carboxamide]", "pIC50": 8.06},
      {"smiles": "COc1cccc(F)c1CN1C[C@H](NC(=O)c2ccc3[nH]nc(-c4ccnc(C)c4)c3c2)CC[C@H]1C(=O)NC[C@@H]1CC[C@@H](O)C1", "note": "[N-[(3R,6S)-1-(2-fluoro-6-methoxybenzyl)-6-({[(1R,3R)-3-hydroxycyclopentyl]methyl}carbamoyl)piperidin-3-yl]-3-(2-methylpyridin-4-yl)-1H-indazole-5-carboxamide]", "pIC50": 8.82}
    ]},
    {"molecular_target": "fully phosphorylated, mouse aERK2 enzyme (Mus musculus (Mouse), UniProt P63085)", "assay": "Active ERK2 (aERK) IMAP-FP assay, condition 2", "format": "biochemical", "details": "active ERK2; read-out: aErk2 Ic50", "procedure": "as §1, §2", "values": [
      {"smiles": "COc1cccc(F)c1CN1C[C@@H](NC(=O)c2ccc3[nH]nc(-c4ccnc(C)c4)c3c2)CC[C@@H]1C(=O)N1CC(O[Si](C)(C)C(C)(C)C)CO1", "note": "(stereo in doubt) [N-[(3S,6R)-6-[(4-{[tert-butyl(dimethyl)silyl]oxy}isoxazolidin-2-yl)carbonyl]-1-(2-fluoro-6-methoxybenzyl)-piperidin-3-yl]-3-(2-methylpyridin-4-yl)-1H-indazole-5-carboxamide]", "pIC50": "7.14 and 6.84"},
      {"smiles": "COc1cccc(F)c1CN1C[C@H](NC(=O)c2ccc3[nH]nc(-c4ccnc(C)c4)c3c2)CC[C@H]1C(=O)N1CCN(C(=O)OC2(C)CC2)CC1", "note": "[1-methylcyclopropyl 4-{[(2S,5R)-1-(2-fluoro-6-methoxybenzyl)-5-({[3-(2-methylpyridin-4-yl)-1H-indazol-5-yl]carbonyl}amino)piperidin-2-yl]carbonyl}piperazine-1-carboxylate]", "pIC50": 7.66},
      {"smiles": "COc1cccc(F)c1CN1C[C@H](NC(=O)c2ccc3[nH]nc(-c4ccnc(C)c4)c3c2)CC[C@H]1C(=O)N1CCN(C(=O)OC(C)C)CC1", "note": "[1-methylethyl 4-{[(2S,5R)-1-(2-fluoro-6-methoxybenzyl)-5-({[3-(2-methylpyridin-4-yl)-1H-indazol-5-yl]carbonyl}amino)piperidin-2-yl]carbonyl}piperazine-1-carboxylate]", "pIC50": 7.72},
      {"smiles": "Cc1cc(-c2n[nH]c3ccc(C(=O)N[C@@H]4CC[C@@H](C(=O)Nc5nccs5)N(CCc5ccccc5)C4)cc23)ccn1", "note": "[3-(2-methylpyridin-4-yl)-N-[(3R,6S)-1-(2-phenylethyl)-6-(1,3-thiazol-2-ylcarbamoyl)-piperidin-3-yl)-1H-indazole-5-carboxamide]", "pIC50": 6.88},
      {"smiles": "Cc1cc(-c2n[nH]c3ccc(C(=O)N[C@@H]4CC[C@@H](C(=O)N(C)C)N(Cc5c(F)cccc5F)C4)cc23)ccn1", "note": "[N-[(3R,6S)-1-(2,6-difluorobenzyl)-6-(dimethylcarbamoyl)piperidin-3-yl]-3-(2-methylpyridin-4-yl)-1H-indazole-5-carboxamide]", "pIC50": 7.13},
      {"smiles": "COc1cccc(F)c1CN1C[C@H](NC(=O)c2ccc3[nH]nc(-c4ccnc(C)c4)c3c2)CC[C@H]1C(=O)N1CCCCO1", "note": "[N-[(3R,6S)-1-(2-fluoro-6-methoxybenzyl)-6-(1,2-oxazinan-2-ylcarbonyl)piperidin-3-yl]-3-(2-methylpyridin-4-yl)-1H-indazole-5-carboxamide]", "pIC50": 8.02},
      {"smiles": "COc1cccc(F)c1CN1C[C@H](NC(=O)c2ccc3[nH]nc(-c4ccnc(C)c4)c3c2)CC[C@H]1C(=O)NN", "note": "[N-[(3R,6S)-1-(2-fluoro-6-methoxybenzyl)-6-(hydrazinocarbonyl)piperidin-3-yl]-3-(2-methylpyridin-4-yl)-1H-indazole-5-carboxamide]", "pIC50": 9.00},
      {"smiles": "COc1cccc(F)c1CN1C[C@H](NC(=O)c2ccc3[nH]nc(-c4ccnc(C)c4)c3c2)CC[C@H]1C(=O)N1CCCO1", "note": "[N-[(3R,6S)-1-(2-fluoro-6-methoxybenzyl)-6-(isoxazolidin-2-ylcarbonyl)piperidin-3-yl]-3-(2-methylpyridin-4-yl)-1H-indazole-5-carboxamide]", "pIC50": 7.98},
      {"smiles": "CNC(=O)[C@@H]1CC[C@@H](NC(=O)c2ccc3[nH]nc(-c4ccnc(C)c4)c3c2)CN1Cc1c(F)cccc1OC", "note": "[N-[(3R,6S)-1-(2-fluoro-6-methoxybenzyl)-6-(methylcarbamoyl)piperidin-3-yl]-3-(2-methylpyridin-4-yl)-1H-indazole-5-carboxamide]", "pIC50": 8.57},
      {"smiles": "CNC(=O)[C@@H]1CC[C@@H](NC(=O)c2ccc3[nH]nc(-c4ccncc4)c3c2)CN1Cc1c(F)cccc1OC", "note": "[N-[(3R,6S)-1-(2-fluoro-6-methoxybenzyl)-6-(methylcarbamoyl)piperidin-3-yl]-3-pyridin-4-yl-1H-indazole-5-carboxamide]", "pIC50": 8.49},
      {"smiles": "COc1cccc(F)c1CN1C[C@H](NC(=O)c2ccc3[nH]nc(-c4ccnc(C)c4)c3c2)CC[C@H]1C(=O)N1CCOCC1", "note": "[N-[(3R,6S)-1-(2-fluoro-6-methoxybenzyl)-6-(morpholin-4-ylcarbonyl)piperidin-3-yl]-3-(2-methylpyridin-4-yl)-1H-indazole-5-carboxamide]", "pIC50": 7.74},
      {"smiles": "COc1cccc(F)c1CN1C[C@H](NC(=O)c2ccc3[nH]nc(-c4ccncc4)c3c2)CC[C@H]1C(=O)N1CCCCC1", "note": "[N-[(3R,6S)-1-(2-fluoro-6-methoxybenzyl)-6-(piperidin-1-ylcarbonyl)piperidin-3-yl]-3-pyridin-4-yl-1H-indazole-5-carboxamide]", "pIC50": 7.22},
      {"smiles": "COc1cccc(F)c1CN1C[C@H](NC(=O)c2ccc3[nH]nc(-c4ccncc4)c3c2)CC[C@H]1C(=O)N1CCCC1", "note": "[N-[(3R,6S)-1-(2-fluoro-6-methoxybenzyl)-6-(pyrrolidin-1-ylcarbonyl)piperidin-3-yl]-3-pyridin-4-yl-1H-indazole-5-carboxamide]", "pIC50": 7.45}
    ]}
  ]
}
